Measured values published in patent US20100273711A1, “INDIVIDUALIZED CANCER TREATMENTS” (priority 2007, published 2010).
Entries after “also recorded” stand apart in the source; their conditions may differ.

Tests used:
[1] = system: NSCLC cell line (H2030); test: Cell proliferation and drug sensitivity assay (MTT colorimetric assay, 96 hrs), H2030; format: cell-based
Description: Lung and ovarian cancer cell culture. The NSCLC cell lines (H23, H225, H322, H358, H441, H520, A549, H647, H838, H1650, H1651, H1666, H1734, H1793, H1838, H2030 and H2 126) were grown as recommended by the supplier (ATCC, Rockville, Mo.). The ovarian cancer cell lines (OCV AR-3, OVCAR-5, TOV-21G and TOV-1120) were grown as recommended by the supplier (ATCC, Rockville, Mo.). FUOV-1, a human ovarian carcinoma, was grown according to the supplier (DSMZ, Braunschweig, Germany). Ten additional cell lines (C13, OV2008, A2780-CP, A2780S, IGROV-1, T8, IMCC3, 1MCC5, SKOV3 and A200S) were provided by Dr. Patricia Kruk (University of South Florida, Fla.). These ten cell lines were grown in RPMI 1640, supplemented with 10% Fetal Bovine Serum, 1% Sodium pyruvate, and 1% non essential amino acids. Tissue culture media and Thiazolyl Blue Tetrazolium Bromide were purchased from Sigma Aldrich (St. Louis, Mo.). […]
Cell proliferation and Drug sensitivity assays. Optimal cell number and linear range of drug concentration were determined for each cell line and drug as described previously (Bild A, Yao G, Chang S T, et al: Oncogenic pathways signatures in human cancers as guide to targeted therapies. Nature 439(7074):353-357, 2006, Potti A, Dressman H K, Bild A, et al: Genomic signatures to guide the use of chemotherapeutics. Nature Medicine 12(11): 1294-1300, 2006). […]

[2] = system: MCF7; conditions: pemetrexed, cell line MCF7; cited from earlier work
[3] = system: NCI-H460; conditions: pemetrexed, cell line NCI-H460; cited from earlier work
[4] = system: MDA-MB-231; conditions: pemetrexed, cell line MDA-MB-231; cited from earlier work
[5] = system: NCI-H226; conditions: pemetrexed, cell line NCI-H226; cited from earlier work
[6] = system: M14; conditions: pemetrexed, cell line M14; cited from earlier work
[7] = system: SK-MEL-2; conditions: pemetrexed, cell line SK-MEL-2; cited from earlier work
[8] = system: 257p; conditions: pemetrexed, cell line 257P; cited from earlier work
[9] = system: C8161; conditions: pemetrexed, cell line C8161; cited from earlier work
[10] = system: ME43; conditions: pemetrexed, cell line me43; cited from earlier work
[11] = system: SNU423; conditions: pemetrexed, cell line SNU423; cited from earlier work

Nc1nc2[nH]cc(CCc3ccc(C(=O)N[C@@H](CCC(=O)O)C(=O)O)cc3)c2c(=O)[nH]1 [Pemetrexed, pemetrexed]
sensitivity to subsequent pemetrexed exposure ([1]; H2030 first treated for four days with a taxane (docetaxel or paclitaxel)): resistance to subsequent pemetrexed exposure was induced; also recorded: develops resistance
sensitivity to pemetrexed ([1]; H2030 first treated with pemetrexed): sensitive
Resistant (Res) or Sensitive (Sen) [2]: Res
Resistant (Res) or Sensitive (Sen) [3]: Res
Resistant (Res) or Sensitive (Sen) [4]: Sen
Resistant (Res) or Sensitive (Sen) [5]: Sen
Resistant (Res) or Sensitive (Sen) [6]: Sen
Resistant (Res) or Sensitive (Sen) [7]: Sen
Resistant (Res) or Sensitive (Sen) [8]: Res
Resistant (Res) or Sensitive (Sen) [9]: Res
Resistant (Res) or Sensitive (Sen) [10]: Res
Resistant (Res) or Sensitive (Sen) [11]: Res
